# ChEMBL document CHEMBL5104126, “Discovery of 2,3-dihydro-1H-pyrrolo[3,4-b]quinolin-1-one derivatives as possible antileishmanial agents” (RSC Med Chem, 2022)
# Activity calls are given as the source filed them. The rule behind the calls is not given here.
# Key:
# [1] = Metabolic stability in mouse liver microsomes assessed as intrinsic clearance at 10 ug/ml measured per mg protein incubated for 1 hrs in presence of NADPH by UPLC analysis; format: ADME, Microsome; details: dose 10 µg/ml, read-out: CLH
# J774 [2] = test: Cytotoxicity against mouse macrophage J774 cells assessed as reduction in cell viability at 6.25 to 25 uM incubated for 72 hrs by MTT assay; format: toxicity, cell-based; details: j774, 72 h, dose 6.25-25 µM
# Leishmania donovani [3] = test: Induction of apoptosis in Leishmania donovani MHOM/IN/80/Dd8 promastigotes assessed as decrease in cytochrome c level in mitochondria at 50 uM incubated upto 48 hrs by immunoblot analysis; format: functional, organism-based; details: TDE = time-dependent effect
# Leishmania donovani [4] = test: Induction of apoptosis in Leishmania donovani MHOM/IN/80/Dd8 promastigotes assessed as increase in cytochrome c level in cytosol at 50 uM incubated upto 48 hrs by immunoblot analysis; format: functional, organism-based; details: TDE = time-dependent effect
# [5] = Stability of compound in mouse plasma assessed as parent compound remaining at 10 ug/ml incubated for 2 hrs by UPLC analysis; format: ADME, cell-free; details: at 10 µg/mL, read-out: Stability
# Leishmania donovani [6] = test: Induction of apoptosis in Leishmania donovani MHOM/IN/80/Dd8 promastigotes assessed as breakdown of nuclear DNA at 50 uM incubated for 72 hrs by agarose gel electrophoresis; format: functional, organism-based
# Leishmania donovani [7] = test: Antileishmanial activity against Leishmania donovani MHOM/IN/80/Dd8 promastigotes infected in Balb/c mouse assessed as inhibition organ parasite burden in liver at 50 mg/kg, ip for 7 days by Giemsa staining based microscopy; format: functional; details: MHOM/IN/80/Dd8, 168 h, time 7 day
# [8] = Metabolic stability in mouse liver microsomes assessed as half life at 10 ug/ml incubated for 1 hrs in presence of NADPH by UPLC analysis; format: ADME, Microsome; details: dose 10 µg/ml
# [9] = Metabolic stability in mouse liver microsomes assessed as parent compound remaining at 10 ug/ml incubated for 1 hrs in presence of NADPH by UPLC analysis; format: ADME, Microsome; details: at 10 µg/mL, read-out: Stability
# [10] = Selectivity index, ratio of CC50 for cytotoxicity against human HepG2 cells to IC50 for antileishmanial activity against Leishmania donovani MHOM/IN/80/Dd8 amastigotes harboring luciferase gene infected in mouse J774 cells; format: toxicity, cell-based; details: read-out: Ratio CC50/IC50
# [11] = Stability of compound in SIF assessed as parent compound remaining at 10 ug/ml incubated for 2 hrs by UPLC analysis; format: ADME; details: at 10 µg/mL, read-out: Stability
# [12] = Aqueous solubility of the compound incubated for 24 hrs by shake flask method; format: physicochemical; details: water
# J774 [13] = test: Cytotoxicity against mouse macrophage J774 cells assessed as reduction in cell viability at 50 to 100 uM incubated for 72 hrs by MTT assay; format: toxicity, cell-based; details: j774, 72 h, dose 50-100 µM
# [14] = Cytotoxicity against human HepG2 cells assessed as inhibition of cell viability incubated for 72 hrs by MTT assay; format: toxicity, cell-based
# Leishmania donovani [15] = test: Antileishmanial activity against Leishmania donovani MHOM/IN/80/Dd8 promastigotes harboring luciferase gene infected in mouse J774 cells assessed as inhibition of parasite viability incubated for 72 hrs by Steady-Glo reagent based luciferase assay relative to control; format: functional, organism-based; details: MHOM/IN/80/Dd8, J774, 72 h
# Leishmania donovani [16] = test: Induction of mitochondrial membrane potential loss in Leishmania donovani MHOM/IN/80/Dd8 promastigotes assessed as apoptotic cells at 50 uM incubated for 48 hrs by JC-1 dye staining based flow cytometry; format: functional
# Leishmania donovani [17] = test: Induction of cell cycle arrest in Leishmania donovani MHOM/IN/80/Dd8 promastigotes assessed as increase in subG0/G1 phase at 50 uM incubated for 72 hrs by PI staining based flow cytometry; format: functional
# [18] = Cytotoxicity against mouse macrophage J774 cells assessed as inhibition of cell viability incubated for 72 hrs by MTT assay; format: toxicity, cell-based
# Leishmania donovani [19] = test: Antileishmanial activity against Leishmania donovani MHOM/IN/80/Dd8 promastigotes infected in Balb/c mouse assessed as inhibition organ parasite burden in spleen at 12.5 mg/kg, ip for 7 days by Giemsa staining based microscopy; format: functional; details: MHOM/IN/80/Dd8, 168 h, time 7 day
# Leishmania donovani [20] = test: Induction of mitochondrial membrane potential loss in Leishmania donovani MHOM/IN/80/Dd8 promastigotes assessed as apoptotic cells at 50 uM incubated for 24 hrs by JC-1 dye staining based flow cytometry; format: functional
# [21] = Metabolic stability in mouse liver microsomes assessed as elimination rate constant at 10 ug/ml incubated for 1 hrs in presence of NADPH by UPLC analysis; format: ADME, Microsome; details: dose 10 µg/ml
# Leishmania donovani [22] = test: Antileishmanial activity against Leishmania donovani MHOM/IN/80/Dd8 amastigotes harboring luciferase gene infected in mouse J774 cells assessed as inhibition of parasite viability at 25 uM incubated for 72 hrs by Steady-Glo reagent based luciferase assay relative to control; format: functional; details: MHOM/IN/80/Dd8, J774
# Leishmania donovani [23] = test: Antileishmanial activity against Leishmania donovani MHOM/IN/80/Dd8 promastigotes harboring luciferase gene infected in mouse J774 cells assessed as inhibition of parasite viability at 25 uM incubated for 72 hrs by Steady-Glo reagent based luciferase assay relative to control; format: functional; details: MHOM/IN/80/Dd8, J774
# Leishmania donovani [24] = test: Antileishmanial activity against Leishmania donovani MHOM/IN/80/Dd8 promastigotes infected in Balb/c mouse assessed as inhibition organ parasite burden in spleen at 6.25 mg/kg, ip for 7 days by Giemsa staining based microscopy; format: functional; details: MHOM/IN/80/Dd8, 168 h, time 7 day
# [25] = Selectivity index, ratio of CC50 for cytotoxicity against mouse macrophage J774 cells to IC50 for antileishmanial activity against Leishmania donovani MHOM/IN/80/Dd8 amastigotes harboring luciferase gene infected in mouse J774 cells; format: toxicity, cell-based; details: read-out: Ratio CC50/IC50
# Leishmania donovani [26] = test: Antileishmanial activity against Leishmania donovani MHOM/IN/80/Dd8 promastigotes infected in Balb/c mouse assessed as inhibition organ parasite burden in liver at 6.25 mg/kg, ip for 7 days by Giemsa staining based microscopy; format: functional; details: MHOM/IN/80/Dd8, 168 h, time 7 day
# Leishmania donovani [27] = test: Antileishmanial activity against Leishmania donovani MHOM/IN/80/Dd8 amastigotes harboring luciferase gene infected in mouse J774 cells assessed as inhibition of parasite viability incubated for 72 hrs by Steady-Glo reagent based luciferase assay relative to control; format: functional, organism-based; details: MHOM/IN/80/Dd8, J774, 72 h
# Leishmania donovani [28] = test: Antileishmanial activity against Leishmania donovani MHOM/IN/80/Dd8 promastigotes infected in Balb/c mouse assessed as inhibition organ parasite burden in spleen at 50 mg/kg, ip for 7 days by Giemsa staining based microscopy; format: functional; details: MHOM/IN/80/Dd8, 168 h, time 7 day
# Leishmania donovani [29] = test: Antileishmanial activity against Leishmania donovani MHOM/IN/80/Dd8 promastigotes infected in Balb/c mouse assessed as inhibition organ parasite burden in liver at 12.5 mg/kg, ip for 7 days by Giemsa staining based microscopy; format: functional; details: MHOM/IN/80/Dd8, 168 h, time 7 day
# [30] = Octanol/water partition coefficient, logP of the compound incubated for 24 hrs by shake flask method; format: physicochemical
# Leishmania donovani [31] = test: Induction of apoptosis in Leishmania donovani MHOM/IN/80/Dd8 promastigotes assessed as ladder like DNA at 50 uM incubated for 72 hrs by agarose gel electrophoresis; format: functional, organism-based
# Leishmania donovani [32] = test: Antileishmanial activity against Leishmania donovani MHOM/IN/80/Dd8 promastigotes harboring luciferase gene infected in mouse J774 cells assessed as inhibition of parasite viability at 50 uM incubated for 72 hrs by Steady-Glo reagent based luciferase assay relative to control; format: functional; details: MHOM/IN/80/Dd8, J774
# [33] = Stability of compound in SGF assessed as parent compound remaining at 10 ug/ml incubated for 2 hrs by UPLC analysis; format: ADME; details: at 10 µg/mL, read-out: Stability
compound,measurement,setting,value
COc1ccc(-c2c3c(nc4ccc(OC)cc24)CN(C(C)(C)C(=O)NC(C)(C)C)C3=O)cc1,microsomal CLint at 10 ug/ml,[1],4.61 µL/min/mg
same,Activity,J774 [2],Non-Toxic
same,Activity,Leishmania donovani [3],Tde
same,Activity,Leishmania donovani [4],Tde
same,"remaining at 2 h, 10 ug/ml",[5],88.7%
same,Activity,Leishmania donovani [6],Active
same,inhibition in vivo at 50 mg/kg,Leishmania donovani [7],57.8%
same,half-life at 10 ug/ml,[8],304 min
same,"remaining at 1 h, 10 ug/ml",[9],86.8%
same,selectivity ratio,[10],7.62
same,"remaining at 2 h, 10 ug/ml",[11],85.5%
same,solubility thermodynamic at 24 h,[12],157 µg/mL
same,Activity,J774 [13],>= 30%
same,CC50 at 72 h,[14],63.7 µM
same,IC50,Leishmania donovani [15],8.36 µM
same,Activity,Leishmania donovani [16],69.1%
same,Activity,Leishmania donovani [17],58.4%
same,CC50 at 72 h,[18],65.1 µM
same,inhibition in vivo at 12.5 mg/kg,Leishmania donovani [19],61.1%
same,Activity,Leishmania donovani [20],36%
same,"k el at 1 h, 10 ug/ml",[21],3.89e-05 s⁻¹
same,inhibition at 25 µM,Leishmania donovani [22],85.5%
same,inhibition at 25 µM,Leishmania donovani [23],85.4%
same,inhibition in vivo at 6.25 mg/kg,Leishmania donovani [24],42.4%
same,selectivity ratio,[25],7.79
same,inhibition in vivo at 6.25 mg/kg,Leishmania donovani [26],45.1%
same,IC50,Leishmania donovani [27],7.36 µM
same,inhibition in vivo at 50 mg/kg,Leishmania donovani [28],63.4%
same,inhibition in vivo at 12.5 mg/kg,Leishmania donovani [29],56.2%
same,logP at 24 h,[30],2.7
same,Activity,Leishmania donovani [31],Active
same,inhibition at 50 µM,Leishmania donovani [32],86.5%
same,"remaining at 2 h, 10 ug/ml",[33],87.5%
